Assay type: physicochemical
Conditions: HPLC on reversed phase columns, method [a]: pH 2.7, 0.1% formic acid in water / acetonitrile, linear gradient 10% to 95% acetonitrile

Compound	log P
CCn1cc(CNC(=O)C2(C(C)=O)CC(c3ccc4ncc(Br)cc4c3)=NO2)c(C)n1 (stereo not shown) [compound 585]	2.53[a]
C#Cc1cnc2ccc(C3=NOC(C)(C(=O)NC4CCN(C)CC4)C3)cc2c1 (stereo not shown) [compound 598]	1.17[a]
CC1(C(=O)NCCF)CC(c2ccc3ncc(Br)cc3c2)=NO1 (stereo not shown) [compound 641]	2.30[a]
C#Cc1cnc2ccc(C3=NOC(C)(C(=O)NCc4nc(C)cc(C)n4)C3)cc2c1 (stereo not shown) [compound 643]	2.23[a]
CC(C)NC(=O)C1(C)CC(c2ccc3nc(C#N)c(Br)cc3c2)=NO1 (stereo not shown) [compound 303]	3.00[a]
CC(C)(C)NC(=O)C1(C)CC(c2ccc3ncc(Br)cc3c2)=NO1 (stereo not shown) [compound 319]	3.39[a]
C#CC1(C(=O)NCc2cn(CC)nc2C)CC(c2ccc3ncc(Br)cc3c2)=NO1 (stereo not shown) [compound 626]	2.57[a]
CC1(C(=O)NCC(F)F)CC(c2ccc3ncc(Br)cc3c2)=NO1 (stereo not shown) [compound 653]	2.56[a]
C#Cc1cnc2ccc(C3=NOC(C)(C(=O)NC(CN(C)c4ccccc4)C4CC4)C3)cc2c1 (stereo not shown) [compound 359]	3.69[a]
CN1C(C)(C)CC(NC(=O)C2(C)CC(c3ccc4ncc(Br)cc4c3)=NO2)CC1(C)C (stereo not shown) [compound 240]	1.47^[a]
COc1ccnc(CNC(=O)C2(C)CC(c3ccc4ncc(Br)cc4c3)=NO2)c1 (stereo not shown) [compound 664]	1.49[a]
C#Cc1cnc2ccc(C3=NOC(C)(C(=O)NC(C#N)c4ccccc4)C3)cc2c1 (stereo not shown) [compound 324]	2.88[a]
C#Cc1cnc2ccc(C3=NOC(C)(C(=O)NCc4cn(C5CC5)nc4C)C3)cc2c1 (stereo not shown) [compound 668]	2.26[a]
COc1ccc(CNC(=O)C2(C)CC(c3ccc4ncc(Br)cc4c3)=NO2)nc1 (stereo not shown) [compound 666]	2.20[a]
C#Cc1cnc2ccc(C3=NOC(C)(C(=O)NC(COc4ccc(F)cc4)C4CC4)C3)cc2c1 (stereo not shown) [compound 318]	3.58[a]
C#Cc1cnc2ccc(C3=NOC(C)(C(=O)NCc4cnccc4OC)C3)cc2c1 (stereo not shown) [compound 672]	1.27[a]

Compound	log P
CCn1cc(CNC(=O)C2(C)CC(c3ccc4ncc(C#N)cc4c3)=NO2)c(C)n1 (stereo not shown) [compound 288]	1.80[a]
C#Cc1cnc2ccc(C3=NOC(C)(C(=O)NCC4CCCN4CC)C3)cc2c1 (stereo not shown) [compound 232]	1.22^[a]
C#Cc1cnc2ccc(C3=NOC(C)(C(=O)NCc4ccc5ccccc5n4)C3)cc2c1 (stereo not shown) [compound 253]	2.45^[a]
CC1(C(=O)NC(c2cccc(Cl)c2)C(F)(F)F)CC(c2ccc3ncc(Br)cc3c2)=NO1 (stereo not shown) [compound 360]	4.39[a]
C#Cc1cnc2ccc(C3=NOC(C)(C(=S)NCC4COC(C)(C)O4)C3)cc2c1 (stereo not shown) [compound 513]	3.44[a]
CC(C)NC(=O)C1(C(C)O)CC(c2ccc3ncc(Br)cc3c2)=NO1 (stereo not shown) [compound 552]	2.23[a]
Cc1cccc(C(NC(=O)C2(C)CC(c3ccc4ncc(Br)cc4c3)=NO2)C(F)(F)F)c1 (stereo not shown) [compound 358]	4.36[a]
Cc1nn(C2CCCC2)cc1CNC(=O)C1(C)CC(c2ccc3ncc(Br)cc3c2)=NO1 (stereo not shown) [compound 630]	3.04[a]
CC1(C(=O)NCC#Cc2ccc(Cl)cc2)CC(c2ccc3ncc(Br)cc3c2)=NO1 (stereo not shown) [compound 248]	4.06^[a]
COC1(C(=O)NC2CCC2)CC(c2cc(Cl)c3ncc(Br)cc3c2)=NO1 (stereo not shown) [compound 576]	3.33[a]
CCn1cc(CNC(=O)C2(C)CC(c3ccc4nc(OC)c(Br)cc4c3)=NO2)c(C)n1 (stereo not shown) [compound 263]	2.96^[a]
Cc1nn(C2CCC2)cc1CNC(=O)C1(C)CC(c2ccc3ncc(Br)cc3c2)=NO1 (stereo not shown) [compound 633]	2.92[a]
COC1(C(=O)NCc2cnc(C)cn2)CC(c2cc(Cl)c3ncc(Br)cc3c2)=NO1 (stereo not shown) [compound 575]	2.62[a]
C#Cc1cnc2ccc(C3=NOC(C)(C(=O)NCc4cccc(OC)n4)C3)cc2c1 (stereo not shown) [compound 665]	2.77[a]
CCn1cc(CNC(=O)C2(C)CC(c3ccc4ncc(Br)cc4c3)=NO2)c(OC)n1 (stereo not shown) [compound 639]	2.63[a]

Same assay, conditions: HPLC on reversed phase columns, method [a]: pH 2.7, 0.1% formic acid in water and acetonitrile, linear gradient 10% to 95% acetonitrile

Compound	log P
CC1(C(=O)NCC2CCC2)CC(c2ccc3ncc(Br)cc3c2)=NO1 (stereo not shown) [compound 775]	3.25[a]
CC1(C(=O)NCCc2ccc(C(F)(F)F)cc2Cl)CC(c2ccc3ncc(Br)cc3c2)=NO1 (stereo not shown) [compound 769]	4.21[a]
CC(C)(C)Sc1cc(CNC(=O)C2(C)CC(c3ccc4ncc(Br)cc4c3)=NO2)ccn1 (stereo not shown) [compound 797]	3.44[a]
C#Cc1cnc2ccc(C3=NOC(C)(C(=O)NCc4cccnc4O)C3)cc2c1 (stereo not shown) [compound 805]	1.64[a]
CC1(C(=O)NCc2ccnc(O)c2)CC(c2ccc3ncc(Br)cc3c2)=NO1 (stereo not shown) [compound 765]	1.72[a]
C#CC1(NC(=O)C2(C)CC(c3ccc4ncc(Br)cc4c3)=NO2)COC1 (stereo not shown) [compound 722]	2.37[a]
C#Cc1cnc2ccc(C3=NOC(C)(C(=O)N4CCOCC4)C3)cc2c1 (stereo not shown) [compound 774]	2.18[a]
C#Cc1cnc2ccc(C3=NOC(C)(C(=O)Nc4cnn(CC)c4)C3)cc2c1 (stereo not shown) [compound 699]	2.17[a]
CC(C)(C)Oc1ncccc1CNC(=O)C1(C)CC(c2ccc3ncc(Br)cc3c2)=NO1 (racemic) [compound 819]	4.46[a]
COc1ccc(CCNC(=O)C2(OC)CC(c3ccc4ncc(Br)cc4c3)=NO2)cc1OC (stereo not shown) [compound 712]	2.94[a]
Cn1c(C(=NOCc2cccc(NC(=O)C3(C)CC(c4ccc5ncc(Br)cc5c4)=NO3)n2)c2ccccc2)noc1=O (stereo not shown) [compound 707]	4.49[a]
CCn1cc(NC(=O)C2(C)CC(c3ccc4ncc(Br)cc4c3)=NO2)cn1 (stereo not shown) [compound 694]	2.45[a]
C#Cc1cnc2ccc(C3=NOC(C)(C(=O)NCc4cccnc4OCC)C3)cc2c1 (stereo not shown) [compound 785]	2.84[a]
C#Cc1cnc2ccc(C3=NOC(C)(C(=O)NCc4ccncc4C)C3)cc2c1 (stereo not shown) [compound 683]	1.29[a]
CC1(C(=O)NCc2cc(C#N)ccn2)CC(c2ccc3ncc(Br)cc3c2)=NO1 (stereo not shown) [compound 748]	2.48[a]
C#Cc1cnc2ccc(C3=NOC(C)(C(=O)NCc4cccnc4C#N)C3)cc2c1 (stereo not shown) [compound 812]	1.70[a]
CC1(C(=O)NCCC2CCCO2)CC(c2ccc3ncc(Br)cc3c2)=NO1 (stereo not shown) [compound 713]	2.39[a]
COc1ncc(CNC(=O)C2(C)CC(c3ccc4ncc(Br)cc4c3)=NO2)cn1 (stereo not shown) [compound 688]	2.25[a]
C#Cc1cnc2ccc(C3=NOC(C)(C(=O)NCc4ccnc(F)c4)C3)cc2c1 (stereo not shown) [compound 802]	2.23[a]
C#Cc1cnc2ccc(C3=NOC(C)(C(=O)NCc4ccnc(SC)c4)C3)cc2c1 (stereo not shown) [compound 798]	2.32[a]
C#Cc1cnc2ccc(C3=NOC(C)(C(=O)NCc4ccnc(OC(C)C)c4)C3)cc2c1 (stereo not shown) [compound 764]	2.71[a]
CC1(C(=O)NCc2ccnc(C(F)(F)F)c2)CC(c2ccc3ncc(Br)cc3c2)=NO1 (stereo not shown) [compound 795]	2.96[a]
CC(NNC(=O)C1(C)CC(c2ccc3ncc(Br)cc3c2)=NO1)C1CC1 (stereo not shown) [compound 767]	2.51[a]
CC1(C(=O)NCC2CC(F)(F)C2)CC(c2ccc3ncc(Br)cc3c2)=NO1 (stereo not shown) [compound 754]	2.98[a]
C#Cc1cnc2ccc(C3=NOC(C)(C(=O)NCC4CC(F)(F)C4)C3)cc2c1 (stereo not shown) [compound 813]	2.71[a]
CC1(C(=O)NCc2cncc(C#N)c2)CC(c2ccc3ncc(Br)cc3c2)=NO1 (stereo not shown) [compound 782]	2.35[a]

Same assay, conditions: method [a]: HPLC/LC-MS on reversed phase at pH 2.7, 0.1% formic acid in water / acetonitrile, gradient 10% to 95% acetonitrile

Compound	log P
C#Cc1cnc2ccc(C3=NOC(C)(C(=O)NC(COC)COC)C3)cc2c1 (stereo not shown) [compound 459]	2.30[a]
CCCCCCC(C)NC(=O)C1(C)CC(c2ccc3ncc(Br)cc3c2)=NO1 (racemic) [compound 370]	4.73[a]
COc1nc2ccc(C3=NOC(C)(C(=O)NC(C)C)C3)cc2cc1I (stereo not shown) [compound 485]	3.72[a]
CCn1cc(CNC(=O)C2(C)CC(c3ccc4ncc(-c5ccco5)cc4c3)=NO2)c(C)n1 (racemic) [compound 379]	2.37[a]
CC(C)NC(=O)C1(C)CC(c2ccc3nc(C#N)c(I)cc3c2)=NO1 (stereo not shown) [compound 510]	3.04[a]
CCn1cc(CNC(=O)C2(C)CC(c3ccc4ncc(N)cc4c3)=NO2)c(C)n1 (racemic) [compound 452]	1.12[a]

Same assay, conditions: method [a]: HPLC/LC-MS on reversed phase at pH 2.7, 0.1% formic acid in water / acetonitrile, linear gradient 10% to 95% acetonitrile

Compound	log P
CC1(C(=O)NCc2ccccc2Cl)CC(c2ccc3ncc(Br)cc3c2)=NO1 (stereo not shown) [compound 93]	3.61^[a]
CC1(C(=O)NCc2ccc3ccccc3n2)CC(c2ccc3ncc(Br)cc3c2)=NO1 (stereo not shown) [compound 165]	2.75^[a]
CC1(C(=O)NCc2nnco2)CC(c2ccc3ncc(Br)cc3c2)=NO1 (stereo not shown) [compound 204]	2.17^[a]
CCn1cc(CNC(=O)C2(C)CC(c3ccc4ncc(S(C)(=O)=O)cc4c3)=NO2)c(C)n1 (stereo not shown) [compound 151]	1.6^[a]
CC(C)NC(=O)C1(Cc2ccccc2)CC(c2ccc3ncc(Br)cc3c2)=NO1 (stereo not shown) [compound 57]	3.87^[a]
CC1(C(=O)NCc2ccc3c(c2)OCCO3)CC(c2ccc3ncc(Br)cc3c2)=NO1 (stereo not shown) [compound 118]	3.04^[a]
C#Cc1cnc2ccc(C3=NOC(C)(C(=O)NCc4ccc(Oc5ccccc5)cc4)C3)cc2c1 (stereo not shown) [compound 175]	3.8^[a]

Same assay, conditions: method [a]: HPLC/LC-MS on reversed phase at pH 2.7, 0.1% formic acid in water and acetonitrile, linear gradient 10% to 95% acetonitrile

Compound	Log P
COc1ccc(CNC(=O)C2(C)CC(c3cc4cc(Br)cnc4c(F)c3F)=NO2)cc1OC (stereo not shown) [compound 19]	3.02^[a]

Same assay, conditions: reversed phase HPLC column; HPLC reversed phase, pH 2.7, 0.1% formic acid in water / acetonitrile, linear gradient 10% to 95% acetonitrile; calibration with alkan-2-ones; read-out: log P (HCOOH)

Compound	chromatographic logP
O/N=C(\Cl)c1ccc2ncc(Cl)cc2c1 [3-chloro-N-hydroxyquinoline-6-carboximidoyl chloride]	1.96
O/N=C/c1ccc2ncc(I)cc2c1 [1-(3-iodoquinolin-6-yl)-N-hydroxymethanimine]	1.98
